Laboratory results reported in patent US20100120738A1, “ANTI-APOPTOTIC BENZODIAZEPINE RECEPTOR LIGAND INHIBITORS” (priority 2006, published 2010).
Read-outs that look alike come from different tables or passages of the source.

Tests used:
[1] = Lipophilicity by octanol partitioning; format: physicochemical; details: octanol-water
Description: To indicate the likelihood that the compounds will cross lipid membranes and be absorbed once administered by oral means, their lipophilicities were determined by octanol partitioning. […] Quantitation was performed by HPLC-UV.

[2] = Oral bioavailability in vivo, plasma levels by LC-MS/MS after intragastric gavage; design: species or system rat
Description: FIG. 18 is a graphical representation showing the bioavailability in vivo for the compounds {[{(Porphine-5,15-diyl)bis[cyclopropyl-diyl]}](2-)-N^21,N^22,N^23,N^24} manganese(III) acetate (EUK-418) and {[{(Porphine-5,15-diyl)bis[benzyl-diyl]}](2-)-N^21,N^22,N^23,N^24} manganese(III) acetate (EUK-423) in rats. Fasted and fed Sprague-Dawley rats were dosed by intragastric gavage with either 4 mg/kg EUK-418 or 2 mg/kg EUK-423. At the times indicated on the x-axis, plasma was obtained from the animals and the concentrations of compounds determined by LC-MS/MS.
Fasted and fed Sprague-Dawley rats were dosed by intragastric gavage with either 4 mg/kg EUK-418 or 2 mg/kg EUK-423. At time points up to 7 hr post-administration, animals were sacrificed, their blood collected over heparin, plasma samples prepared by centrifugation, and plasma levels of the compounds were determined by LC-MS/MS.

[3] = Brain uptake (brain level over plasma level); format: in vivo; details: above 20 ul/g indicates delivery across the blood-brain barrier
Description: In further studies, compounds are administered orally to animals as described above, or alternatively, by daily i.p. injection for up to five days at concentrations of about 0.3 mg/kg body weight, 3.0 mg/kg and 30 mg/kg. The animals are then sacrificed and their brains removed and snap-frozen in liquid nitrogen. The brains are homogenized in methanol containing 5% TCA, and the soluble fraction is prepared by centrifugation.
Levels of compounds in the brain tissue are determined by LC-MS (HPLLC, Waters; Mass Spectrometer, Micromass Quattro). The half-life of each compound administered to the animals is determined over a period of time from about 5 minutes up to about 2 days.
Brain bioavailability is determined by calculating brain uptake at all time points. Brain uptake is the ratio of brain levels (as moles/g tissue) over plasma levels (as […] and is expressed as ul/g. One gram of brain tissue contains approximately 20 ul of plasma. Thus, any brain uptake value above 20 ul/g is indicative of delivery across the blood-brain barrier to the brain parenchyma. For example, the brain uptake values for EUK-418 are in excess of about 100 ul/g.

[4] = Stability in USP simulated gastric fluid (SGF); format: in vitro ADME; details: 37° C., pH approx. 1.2
From the text: Aliquots of SGF were withdrawn and intact compound quantitated by HPLC-UV.

[5] = test system: Bovine capillary endothelial cells; assay: Protection against radiation-induced apoptosis (DAPI apoptotic index); format: cell-based; details: low doses; FIG. 13 and FIG. 14
Description: Bovine capillary endothelial cells were cultured on eight chamber Labtek slides and exposed to ionizing radiation (20 Gy) for 6 hours. After this time, cells were either left untreated or treated with compound at the concentration indicated on the x-axis. Cells were then fixed in methanol and stained with 5 μg/ml DAPI and DNA was visualized using a Nikon epifluorescence microscope, and apoptosis scored and expressed as an apoptotic index according to the percentage of apoptotic cells in a field of 100 cells. Open bars indicate apoptotic index following irradiation. Hatched bars indicate apoptotic index for control cells not receiving a dose of ionizing radiation.
(§1) Bovine capillary endothelial cells were cultured on eight-chamber Labtek slides and exposed to ionizing radiation (20 Gy), which was calibrated using an X-ray exposure meter. […] In control experiments, cells either received no ionizing radiation (sham) or no compound. After 6 h incubation, the cells were fixed in methanol and stained with 5 μg/ml 4,6-diamidino-2-phenylindole (DAPI). DNA was visualized using a Nikon epifluorescence microscope, and apoptosis was scored and expressed as an apoptotic index (% apoptotic cells in a field of 100).

[6] = Superoxide dismutase (SOD) activity; format: biochemical
PC12 cells = assay: Protection against STS-induced apoptosis in PC12 cells (XTT viability assay); format: cell-based, rat
Description: Rat pheochromocytoma (PC12) cells were cultured in collagen-coated 96-well plates according to directions provided by the American Type Culture Collection. Staurosporine was added at various concentrations sufficient to induce apoptosis. Test compounds were added together with the staurosporine. Cells were incubated overnight at 37° C., 5% CO2. After 18-24 hours, test media was removed and cell viability was determined using the XTT viability assay described by Baker et al., J. Pharmacol. Exp, Therapeutics 284, 215-221, 1998, the contents of which are incorporated herein by reference.

[7] = test system: Bovine capillary endothelial cells; assay: Cytotoxicity/necrosis of non-irradiated cells (LDH release, field number); format: cell-based
Description: as §1, with “100). […] Field number was also calculated for all other compounds tested as a control (results not shown).” for “100).”
To determine cytotoxicity of the compounds under these conditions, duplicate samples of the cells receiving a dose of compound at each concentration tested in the absence of a dose of ionizing radiation were assayed for release of LDH into the culture medium.

[8] = test system: cultured mesencephalic tissue slices; assay: MPP+ induced neurodegeneration in cultured mesencephalic tissue slices (LDH release); format: cell-based, rat; details: 20 μM MPP+; compound 100 nM, 1.0 μM, 10 μM; FIG. 17
Description: FIG. 17 is a graphical representation showing the effects of exemplary low molecular weight metalloporphyrin compounds of the present invention on MPP+ induced neurodegeneration in cultured mesencephalic tissue slices. Mesencephalic tissue slices were prepared from PND 3-5 rats and maintained in culture for 2 weeks. The tissue slices were incubated with a porphyrin compound as indicated on the x-axis for 6 hours before adding 20 μM MPP+ to induce neuronal apoptosis. Concentrations of each porphyrin compound tested were 100 nM ? 1.0 μM ? and 10 μM ? Following a further incubation for 48 hours, the slices were collected and the level of lactate dehydrogenase (LDH) released into the medium was determined.

In the case of `C1=Cc2nc1cc1ccc([n-]1)c(C1CC1)c1nc(cc3ccc([n-]3)c2C2CC2)C=C1.CC(=O)[O-].[Mn+3]` [EUK-418, {[{(Porphine-5,15-diyl)bis[cyclopropyl-diyl]}](2-)-N^21,N^22,N^23,N^24} manganese(III) acetate], the “Log10 P value” [1] is reported as 0.548 ± 0.009, the “P value (octanol partitioning coefficient)” value [1] is reported as 3.53 ± 0.14 and the “effect of fasting of animals on plasma concentration” value ([2]; 4 mg/kg intragastric gavage) is reported as “increase plasma concentration”. For the same compound, the “plasma concentration to which compound declined for the assayed period” value ([2]; 4 mg/kg intragastric gavage, fasted rats, up to 7 hr) was “about 100 ng/ml”, the “plasma time course” value ([2]; intragastric gavage, 4 mg/kg EUK-418 or 2 mg/kg EUK-423) was “increased rapidly in serum of fasted rats” and the “found in plasma / bioavailable after oral administration” value ([2]; intragastric gavage, 4 mg/kg EUK-418 or 2 mg/kg EUK-423, fasted and fed rats) was “bioavailable in vivo”. The “brain uptake value (brain level / plasma level)” value [3] was > 100 µL/g, the “Percentage remaining after 90 mins in SGF” value [4] was 92.2% and the “protection of cells exposed to ionizing radiation” value [5] was “protected”. For the same compound, the IC50 ([6]; cuvette format, read-out: Cuvette IC50) was 8.28 µM, the IC50 ([6]; microplate format, read-out: Microplate IC50) was 0.382 µM and the “effect on staurosporine-induced apoptosis of PC12 cells” value (PC12 cells; FIG. 11) was “effectively reduce apoptosis”. The “effect on staurosporine-induced apoptosis of PC12 cells” value (PC12 cells; FIG. 12, at up to about 5 μM concentration, toxicity blunts protection at high concentrations) was “effectively reduce apoptosis”, the “necrosis at the protective concentration” value ([7]; 3 μM EUK-418, about 3-10 μM EUK-423) was “failed to induce noticeable necrosis” and the “concentration causing significant increase in field number for control cells, indicating cytotoxicity” value ([7]; control cells without ionizing radiation) was ≥ 30 µM. The “prevention of cytotoxicity induced by MPP+” value [8] was “prevent cytotoxicity”.
